Earlier results as cited in patent US10583082B2, “Composition comprising at least two dry powders obtained by spray drying to increase the stability of the formulation” (Eratech S.R.L., priority 2013, dated 2020).

Conditions: from US 2001/0036481 A1

With `CCCCCCCCCCCCCCCC(=O)OCC(COP(=O)(O)OCCN)OC(=O)CCCCCCCCCCCCCCC` (stereo not drawn) [DPPE, dipalmitoylphosphatidylethanolamine] as the compound, how does the “phospholipid transition temperature (Tg) with humidity” value (“phospholipid transition temperature” for short) read?
The value was 63 °C.

Which “phospholipid transition temperature” value does the source give for `CCCCCCCCCCCCCCCCCC(=O)OC[C@H](COP(=O)([O-])OCC[N+](C)(C)C)OC(=O)CCCCCCCCCCCCCCCCC` [DSPC, distearoylphosphatidylcholine] here?
The value was 55 °C.

With `CCCCCCCCCCCCCCCC(=O)OC[C@H](COP(=O)([O-])OCC[N+](C)(C)C)OC(=O)CCCCCCCCCCCCCCC` [DPPC, dipalmitoylphosphatidylcholine] as the compound, how does the “phospholipid transition temperature” value read?
The value was 41 °C.
